{"source": "paper PMC5774136", "about": "“Alarm pheromone and kairomone detection via bitter taste receptors in the mouse Grueneberg ganglion” (BMC Biology, 2018)", "assay_in_all_cases": "Fura-2 calcium imaging, transfected HEK cells", "assay_type_in_all_cases": "cell-based", "key": {"TAS2R143 [1]": {"target": "T1, TAS2R143 (Mus musculus, UniProt Q7TQB9)", "T1 construct": "N-terminal tag of first 39 residues of bovine rhodopsin; pcDNA3.1(+); HEK 293 cells (ATCC CRL-1573); co-expressed human Galpha16 / mouse gustducin C-terminal 44 chimera", "T1 sequence (Q7TQB9 1-293)": "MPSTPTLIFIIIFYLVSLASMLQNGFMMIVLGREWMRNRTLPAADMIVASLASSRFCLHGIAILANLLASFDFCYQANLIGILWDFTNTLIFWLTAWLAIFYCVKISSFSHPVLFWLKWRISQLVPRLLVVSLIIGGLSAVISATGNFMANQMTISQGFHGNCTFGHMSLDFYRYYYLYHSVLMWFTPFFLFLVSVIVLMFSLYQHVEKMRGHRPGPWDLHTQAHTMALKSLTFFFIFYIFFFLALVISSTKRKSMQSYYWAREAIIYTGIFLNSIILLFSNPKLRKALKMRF", "conditions": "100 uM ligand; agonist; Galpha16-gustducin chimera co-expressed"}, "TAS2R143 [2]": {"target": "T1, TAS2R143", "conditions": "500 uM ligand; agonist; Galpha16-gustducin chimera co-expressed"}, "TAS2R115": {"target": "T2, TAS2R115 (Mus musculus, UniProt Q7M719)", "T2 construct": "N-terminal tag of first 39 residues of bovine rhodopsin; pcDNA3.1(+); HEK 293 cells (ATCC CRL-1573); co-expressed human Galpha16 / mouse gustducin C-terminal 44 chimera", "T2 sequence (Q7M719 1-310)": "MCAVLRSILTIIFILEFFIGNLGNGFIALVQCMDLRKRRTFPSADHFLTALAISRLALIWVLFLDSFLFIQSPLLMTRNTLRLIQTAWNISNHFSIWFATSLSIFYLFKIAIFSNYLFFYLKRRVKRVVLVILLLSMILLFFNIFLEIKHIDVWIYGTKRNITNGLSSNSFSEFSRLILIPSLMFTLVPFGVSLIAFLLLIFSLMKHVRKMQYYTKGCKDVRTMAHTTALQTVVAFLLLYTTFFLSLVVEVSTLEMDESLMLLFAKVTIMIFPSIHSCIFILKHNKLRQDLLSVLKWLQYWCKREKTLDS", "conditions": "100 uM ligand; weak agonist; Galpha16-gustducin chimera co-expressed"}, "TAS2R131": {"target": "T3, TAS2R131 (Mus musculus, UniProt Q7M708)", "T3 construct": "N-terminal tag of first 39 residues of bovine rhodopsin; pcDNA3.1(+); HEK 293 cells (ATCC CRL-1573); co-expressed human Galpha16 / mouse gustducin C-terminal 44 chimera", "T3 sequence (Q7M708 1-310)": "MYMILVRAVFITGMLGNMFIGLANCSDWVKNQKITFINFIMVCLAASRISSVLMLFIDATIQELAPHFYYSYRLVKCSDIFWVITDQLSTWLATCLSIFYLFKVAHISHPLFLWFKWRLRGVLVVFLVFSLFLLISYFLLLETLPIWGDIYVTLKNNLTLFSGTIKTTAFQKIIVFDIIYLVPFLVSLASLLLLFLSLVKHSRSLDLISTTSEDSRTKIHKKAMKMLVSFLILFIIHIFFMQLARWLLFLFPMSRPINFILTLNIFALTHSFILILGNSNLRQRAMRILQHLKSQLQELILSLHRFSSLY", "conditions": "100 uM ligand; weak agonist; Galpha16-gustducin chimera co-expressed"}}}
{"compound": "CCCC1CCS1", "note": "(stereo not drawn) [2-PT, 2-propylthietane]", "values": [{"measurement": "% of transfected cells responding at 100 uM", "setting": "TAS2R143 [1]", "result": 47, "unit": "%"}]}
{"compound": "2,4,5-trimethylthiazoline [TMT]", "values": [{"measurement": "% of transfected cells responding at 500 uM", "setting": "TAS2R143 [2]", "result": 51, "unit": "%"}]}
{"compound": "CCC(C)C1=NCCS1", "note": "(stereo not drawn) [SBT, 2-sec-butylthiazoline]", "values": [{"measurement": "% of transfected cells responding at 100 uM", "setting": "TAS2R143 [1]", "result": 13, "unit": "%"}]}
{"compound": "CCc1cnccn1", "note": "[2-EP, 2-ethylpyrazine]", "values": [{"measurement": "% of transfected cells responding at 100 uM", "setting": "TAS2R143 [1]", "result": 14, "unit": "%"}, {"measurement": "% of transfected cells responding at 100 uM", "setting": "TAS2R115", "result": "~ 5%"}, {"measurement": "% of transfected cells responding at 100 uM", "setting": "TAS2R131", "result": "~ 5%"}]}
